# Measured values from article PMC7725785, “TRIB3 promotes MYC-associated lymphoma development through suppression of UBE3B-mediated MYC degradation” (Nature Communications, 2020).
# Several values for one entry are separate records, joined by “and”; a condition that tells them apart may be missing. Identical values can stand only once.
# Tests used:
# Raji cells = experiment: Cell viability (CCK-8) of Raji cells with PCM4 and DOX; format: cell-based, human; settings: result in words
# MYC target genes = experiment: qRT-PCR of MYC target genes; format: cell-based, human; settings: qRT-PCR and RNA-seq; result in words
# Procedure: Total RNA was extracted using TRIzol (Invitrogen, CA, USA) according to the manufacturer’s instructions. Reverse transcription of total cellular RNA was carried out using oligo (dT) primers and M-MLV reverse transcriptase (Transgen Biotech, Beijing, China). PCR was performed using a Mycycler thermal cycler and analyzed using LineGene9600. The PCR primer sequences were as follows: MYC forward, 5′-[…]-3′; MYC reverse, 5′-[…]-3′; GAPDH forward, 5′-[…]-3′; GAPDH reverse, 5′-[…]-3′; TFAP4 forward, 5′-[…]-3′, TFAP4 reverse, 5′-[…]-3′; PLD6 forward, 5′-[…]-3′, PLD6 reverse, 5′-[…]-3′; CCNA1 forward, 5′-[…] GCAG-3′, CCNA1 reverse, 5′-[…]-3′; CCND1 forward, 5′-CCGTCC […]-3′, CCND1 reverse, 5′-[…]-3′; CCNE2 forward, 5′-TTC […]-3′; and CCNE2 reverse, 5′-[…]-3′. The human FBXW7 siRNA sequence was 5′-[…]-3′, the human MYC siRNA sequence was 5′-[…] GCGAA-3′, and the human HUWE1 siRNA sequence was 5′-[…]-3’. TRIB3 siRNAs were produced by RiboBio (Guangzhou, China) and transfected using Lipofectamine RNA interference MAX Transfection Reagent (Life Technologies, CA, USA) according to the manufacturer’s instructions.
# MYC and UBE3B = experiment: MYC/UBE3B colocalized foci in Raji cells; format: cell-based, human
# Procedure: A total of 1 × 10^6 cells were seeded overnight in a six-well plate. […] The cells were then treated with the Duolink In Situ Red Starter Mouse/Rabbit kit (Sigma Aldrich, DUO92101-1KT) according to the manufacturer’s instructions. Images were captured with an OLYMPUS confocal microscope.
# For immunofluorescence staining, cells seeded on coverslips were briefly washed with PBS and fixed with 4% buffered paraformaldehyde for 15 min, permeabilized with 0.5% Triton X- 100 for 15 min, blocked with 3% BSA for 30 min at 37 °C, and stained with specific primary antibodies followed by corresponding secondary antibodies. Nuclei were counterstained with DAPI. Images were captured using a confocal fluorescent microscope (Olympus Microsystems, CA, USA). Quantitative image analysis was performed with the Imaris 9.3.1 software. Pearson’s coefficient was use to analyze colocalization between two target proteins.
# MYC ubiquitination = MYC ubiquitination in PCON- and PCM4-treated Raji cells; format: cell-based, human; settings: lymphoma cells; result in words
# RNAPII = experiment: ChIP-seq of RNAPII occupancy in Raji cells; format: cell-based, human; settings: ChIP-seq with spike-in, result in words
# Procedure: ChIP assays were performed according to the manufacturer’s protocol using a SimpleChIP® Plus Sonication Chromatin IP Kit (Cell Signaling Technology, Danvers, MA, USA, (#56383). Briefly, cells were fixated with 1% formaldehyde (Sigma Aldrich, F8775) for 8 min, incubated with glycine (50 mM final) for 10 min and washed three times with PBS. After cell lysis and chromatin extraction, chromatin was sonicated to 100–500 bp using a BioRuptor sonicator (Diagenode), followed by centrifugation at 16,000×g for 10 min at 4 °C. To control for experimental variation, our spike-in data were normalized to a spike-in control consisting of a small amount of chromatin from another species. Briefly, Baf3 cell lysates were sonicated exactly as described above and added at a 1:100 ratio of Raji cells to lysates. […] The Qubit® 3.0 A fluorometer was used for quantitation of the ChIP library. […]
# The ChIP libraries were sequenced on Illumina HiSeq platform in 150 bp paired-end reads. After quality control, the clean reads were aligned to the human reference genome (Homo sapiens. GRCh38.87v2) with Bowtie v2.1.0. Unambiguously mapped reads were retained for subsequent generation of binding profiles, heatmaps and calling of peaks. […] Mapped reads were visualized using the Integrative Genomics Viewer (IGV). We next used the murine spike-in to quantitatively normalize different samples. […]
# [1] = Serum ALT, AST, UREA and CRE (liver and renal function) in treated Myc^Eμ mice; settings: UREA, CRE, result in words
# Excerpt: The serum alanine transaminase (ALT) and aspartate transaminase (AST) levels of MycEµ mice with the indicated
# treatment were detected to evaluate liver function (n = 6 per group). Data are represented as means ± SEM. (b) Th e
# serum UREA and creatinine (CRE) levels of MycEµ mice with the indicated treatment were detected to evaluate
# renal function (n = 6 per group). Data are represented as means ± SEM.
sequence,measurement,setting,value
HLYVSPWGGKRREQLKHKLEQLR [PCM4],effect on Raji cell proliferation in combination with doxorubicin (DOX),Raji cells,synergistically inhibited Raji cell proliferation
same,transcription of MYC target genes,MYC target genes,suppressed the transcription of MYC target genes
same,Fig 6f. MYC/UBE3B foci per cell,"MYC and UBE3B; 30 Min, single cells, n = 20",12 and 11
same,interaction of MYC and UBE3B,MYC and UBE3B; result in words,rescued the interaction of MYC and UBE3B
same,MYC ubiquitination and degradation,MYC ubiquitination,rescued MYC ubiquitination and degradation
same,association of RNAPII with promoters,RNAPII,globally reduced the association of RNAPII with promoters
same,toxic effects (renal/liver function assays),[1],did not exert obvious toxic effects
